row,SMILES,melting point
1,"O=C(NC12CC3CC(CC(C3)C1)C2)OCc1cccs1 [STX1711, Adamantan-1-yl-carbamic acid thiophen-2-ylmethyl ester]",66 to 68 °C
2,"O=C(NC12CC3CC(CC(C3)C1)C2)OCCc1cccs1 [STX1712, Adamantan-1-yl-carbamic acid 2-thiophen-2-yl-ethyl ester]",67 to 69 °C
3,"O=C(NCCc1cccs1)NC12CC3CC(CC(C3)C1)C2 [STX1714, 1-Adamantan-1-yl-3-(2-thiophen-2-yl-ethyl)-urea]",138 to 142 °C
4,"O=C(N1CCc2sccc2C1)C12CC3CC(CC(C3)C1)C2 [STX1721, Adamantan-1-yl-(6,7-dihydro-4H-thieno[3,2-c]pyridin-5-yl)-methanone]",141 to 143 °C
5,"Cc1nc2cc(NCC(=O)C(C)(C)C)ccc2s1 [STX1740, 3,3-Dimethyl-1-(2-methyl-benzothiazol-5-ylamino)-butan-2-one]",108 to 111 °C
6,"[O-][S+](Cc1cn(C23CC4CC(CC(C4)C2)C3)nn1)c1cc(Cl)ccc1Cl (stereo not shown) [STX1892, 1-Adamantan-1-yl-4-(2,5-dichloro-benzenesulfinylmethyl)-1H-[1,2,3]triazole]",125 to 128 °C
7,"COc1ccc(OCc2cn(C34CC5CC(CC(C5)C3)C4)nn2)cc1OC [STX1893, 1-Adamantan-1-yl-4-(3,4-dimethoxy-phenoxymethyl)-1H-[1,2,3]triazole]",108 to 112 °C
8,"O=C(N1CCN(c2ccc(Cl)cc2)CC1)C12CC3CC(CC(C3)C1)C2 [STX2120, Adamantan-1-yl-[4-(4-chloro-phenyl)-piperazin-1-yl]methanone]",183 to 185 °C
9,"CC(=O)Nc1ccc(NCC(=O)C23CC4CC(CC(C4)C2)C3)cc1 [STX2241, N-[4-(2-Adamantan-1-yl-2-oxo-ethylamino)-phenyl]acetamide]",156 to 158 °C
10,"Cc1c(C(=O)CS(=O)(=O)Cc2ccc(Cl)cc2)sc2ccc(Cl)cc12 [STX2296, 1-(5-Chloro-3-methyl-benzo[b]thiophen-2-yl)-2-(4-chloro-phenylmethanesulfonyl)-ethanone]",204.5 to 205.5 °C
11,"CC(=O)Nc1ccc(S(=O)(=O)CC(=O)C23CC4CC(CC(C4)C2)C3)cc1 [STX2298, N-[4-(2-Adamantan-1-yl-2-oxo-ethanesulfonyl)-phenyl]-acetamide]",151 to 151.5 °C
12,"O=C(NCc1ccc(Cl)cc1)C1CCN(C(=O)C23CC4CC(CC(C4)C2)C3)CC1 [STX2306, 1-(Adamantane-1-carbonyl)-piperidine-4-carboxylic acid 4-chloro-benzylamide]",150 to 152 °C
13,"O=C(O)c1ccc(OCC(=O)C23CC4CC(CC(C4)C2)C3)cc1 [STX2318, 4-(2-Adamantan-1-yl-2-oxo-ethoxy)-benzoic acid]",185.2 °C
14,"COC(=O)Cc1ccc(OCC(=O)C23CC4CC(CC(C4)C2)C3)cc1 [STX2320, [4-(2-Adamantan-1-yl-2-oxo-ethoxy)-phenyl]-acetic acid methyl ester]",71.9 °C
15,"O=C(O)Cc1ccc(OCC(=O)C23CC4CC(CC(C4)C2)C3)cc1 [STX2364, [4-(2-Adamantan-1-yl-2-oxo-ethoxy)-phenyl]-acetic acid]",153.4 °C
16,"CCN(CC)C(=O)c1ccc(OCC(=O)C23CC4CC(CC(C4)C2)C3)cc1 [STX2375, 4-(2-Adamantan-1-yl-2-oxo-ethoxy)-N,N-diethyl-benzamide]",103.9 °C
17,"CCc1ccc(CN(C)C(=O)CC23CC4CC(CC(C4)C2)C3)s1 [STX2394, 2-Adamantan-1-yl-N-(5-ethyl-thiophen-2-ylmethyl)-N-methyl-acetamide]",54 to 55 °C
18,"CN(Cc1cc(Br)cs1)C(=O)CC12CC3CC(CC(C3)C1)C2 [STX2396, 2-Adamantan-1-yl-N-(4-bromo-thiophen-2-ylmethyl)-N-methyl-acetamide]",86 to 88.5 °C
19,"O=C(CC12CC3CC(CC(C3)C1)C2)N1CCN(Cc2ccc(Cl)cc2)CC1 [STX2402, 2-Adamantan-1-yl-1-[4-(4-chloro-benzyl)-piperazin-1-yl]-ethanone]",119 to 121 °C
20,"Cc1cccc(CN2CCN(C(=O)CC34CC5CC(CC(C5)C3)C4)CC2)c1 [STX2403, 2-Adamantan-1-yl-1-[4-(3-methyl-benzyl)-piperazin-1-yl]-ethanone]",86 to 88 °C
21,"O=C(CC12CC3CC(CC(C3)C1)C2)N1CCN(c2ccc(Cl)cc2)CC1 [STX2404, 2-Adamantan-1-yl-1-[4-(4-chloro-phenyl)-piperazin-1-yl]-ethanone]",112.5 to 115 °C

# Results, then the compound that gave them:
row,melting point,SMILES
1,64 to 65 °C,"CN(CCc1ccccn1)C(=O)C12CC3CC(CC(C3)C1)C2 [STX1887, Adamantane-1-carboxylic acid methyl-(2-pyridin-2-yl-ethyl)-amide]"
2,65 to 69 °C,"Cn1ccnc1SCC(=O)C12CC3CC(CC(C3)C1)C2 [STX1898, 1-Adamantan-1-yl-2-(1-methyl-1H-imidazol-2-ylsulfanyl)-ethanone]"
3,69 to 72 °C,"O=C(CSc1cccs1)C12CC3CC(CC(C3)C1)C2 [STX1902, 1-Adamantan-1-yl-2-(thiophen-2-ylsulfanyl)-ethanone]"
4,75 to 79 °C,"O=C(C[S+]([O-])Cc1ccco1)C12CC3CC(CC(C3)C1)C2 (stereo not shown) [STX1908, 1-Adamantan-1-yl-2-(furan-2-ylmethanesulfinyl)-ethanone]"
5,95 to 99 °C,"CN(CCc1cccs1)C(=O)C12CC3CC(CC(C3)C1)C2 [STX1910, Adamantane-1-carboxylic acid methyl-(2-thiophen-2-yl-ethyl)-amide]"
6,86 to 89 °C,"Cn1ccnc1[S+]([O-])CC(=O)C12CC3CC(CC(C3)C1)C2 (stereo not shown) [STX1924, 1-Adamantan-1-yl-2-(1-methyl-1H-imidazole-2-sulfinyl)-ethanone]"
7,95 to 98 °C,"O=C(C[S+]([O-])Cc1cccs1)C12CC3CC(CC(C3)C1)C2 (stereo not shown) [STX1929, 1-Adamantan-1-yl-2-(thiophen-2-ylmethanesulfinyl)-ethanone]"
8,114 to 115.5 °C,"O=C(C[S+]([O-])c1cccs1)C12CC3CC(CC(C3)C1)C2 (stereo not shown) [STX1930, 1-Adamantan-1-yl-2-(thiophene-2-sulfinyl)-ethanone]"
9,93 to 95 °C,"Cc1ccc(CN(C)C(=O)C23CC4CC(CC(C4)C2)C3)cc1 [STX2003, Adamantane-1-carboxylic acid methyl-(4-methyl-benzyl)-amide]"
10,137 to 140 °C,"O=C(N1CCN(c2ccccn2)CC1)C12CC3CC(CC(C3)C1)C2 [STX2065, Adamantan-1-yl-(4-pyridin-2-yl-piperazin-1-yl)-methanone]"
11,83 to 85.5 °C,"Cc1ccc(CN(C)C(=O)C23CC4CC(CC(C4)C2)C3)s1 [STX2067, Adamantane-1-carboxylic acid methyl-(5-methyl-thiophen-2-ylmethyl)-amide]"
12,76 to 77.5 °C,"Cc1cccc(CN(C)C(=O)C23CC4CC(CC(C4)C2)C3)n1 [STX2134, Adamantane-1-carboxylic acid methyl-(6-methyl-pyridin-2-ylmethyl)-amide]"
13,57 to 59.5 °C,"CN(Cc1cccnc1)C(=O)C12CC3CC(CC(C3)C1)C2 [STX2135, Adamantane-1-carboxylic acid methyl-pyridin-3-ylmethyl-amide]"
14,53.5 to 54.5 °C,"CN(Cc1ccco1)C(=O)C12CC3CC(CC(C3)C1)C2 [STX2247, Adamantane-1-carboxylic acid furan-2-ylmethyl-methyl-amide]"
15,87 to 88 °C,"Cc1csc(CN(C)C(=O)C23CC4CC(CC(C4)C2)C3)c1 [STX2254, Adamantane-1-carboxylic acid methyl-(4-methyl-thiophen-2-ylmethyl)-amide]"
16,124 to 125 °C,"Cn1ccnc1S(=O)(=O)CC(=O)C12CC3CC(CC(C3)C1)C2 [STX2294, 1-Adamantan-1-yl-2-(1-methyl-1H-imidazole-2-sulfonyl)-ethanone]"
17,117.5 to 119 °C,"O=C(CS(=O)(=O)c1cccs1)C12CC3CC(CC(C3)C1)C2 [STX2295, 1-Adamantan-1-yl-2-(thiophene-2-sulfonyl)-ethanone]"
18,95.5 to 98 °C,"O=C(CS(=O)(=O)Cc1cccs1)C12CC3CC(CC(C3)C1)C2 [STX2299, 1-Adamantan-1-yl-2-(thiophen-2-ylmethanesulfonyl)-ethanone]"
19,156.2 °C,"O=C(O)c1cccc(OCC(=O)C23CC4CC(CC(C4)C2)C3)c1 [STX2361, 3-(2-Adamantan-1-yl-2-oxo-ethoxy)-benzoic acid]"
20,129 to 131 °C,"O=C(Nc1cccnc1)C12CC3CC(CC(C3)C1)C2 [STX2399, Adamantane-1-carboxylic acid pyridin-3-ylamide]"
21,200 to 201 °C,"O=C(Nc1nccs1)C12CC3CC(CC(C3)C1)C2 [STX2401, Adamantane-1-carboxylic acid thiazol-2-ylamide]"
22,69 to 71 °C,"CN(Cc1ccsc1)C(=O)CC12CC3CC(CC(C3)C1)C2 [STX2406, 2-Adamantan-1-yl-N-methyl-N-thiophen-3-ylmethyl-acetamide]"
23,75 to 76.5 °C,"CN(Cc1cccn1C)C(=O)CC12CC3CC(CC(C3)C1)C2 [STX2407, 2-Adamantan-1-yl-N-methyl-N-(1-methyl-1H-pyrrol-2-ylmethyl)-acetamide]"
24,67 to 68.5 °C,"CN(Cc1cccnc1)C(=O)CC12CC3CC(CC(C3)C1)C2 [STX2409, 2-Adamantan-1-yl-N-methyl-N-pyridin-3-ylmethyl-acetamide]"
25,145.5 to 147 °C,"O=C(NCc1cccc([N+](=O)[O-])c1)C12CC3CC(CC(C3)C1)C2 [STX2411, Adamantane-1-carboxylic acid 3-nitro-benzylamide]"

# Reference: patent US20100120789A1, “Compound” (priority 2005, published 2010)
